Measured values as given in patent US6730293B1, “Compositions and methods for treating inflammatory diseases of the skin” (CellGate, Inc., priority 1999, dated 2004).
Peptide text beside a SMILES is read from it. * marks the point of attachment. FITC = O=C1OC2(c3ccc(O)cc3Oc3cc(O)ccc32)c2ccc(NC(=S)*)cc21; Ahx = NCCCCCC(=O)O

Experiments:
[1] = test system: Jurkat cells; assay: FACS cellular uptake assay of fluorescently labeled peptides and peptoids; format: cell-based, human; conditions: for loss of intracellular fluorescence compared to the parent sequence (Tat49-57) / additional loss of intracellular fluorescence from the one amino acid truncated analogs: 15 min at 23° C.; for cellular uptake compared with Tat49-57: 23° C., 2% FCS
Protocol: Cellular Uptake Assay. […] The accuracy of this method for determining concentration was established by weighing selected samples and dissolving them in a known amount of PBS buffer. The concentrations determined by UV spectroscopy correlated with the amounts weighed out manually. Jurkat cells (human T cell line), murine B cells (CH27), or human PBL cells were grown in 10% fetal calf serum and DMEM and each of these were used for cellular uptake experiments. […] The microtiter plates were centrifuged and the cells were isolated, washed with cold PBS (3×250 μL), incubated with 0.05% trypsin/0.53 mM EDTA at 37° C. for 5 min, washed with cold PBS, and resuspended in PBS containing 0.1% propidium iodide. The cells were analyzed using fluorescent flow cytometry (FACScan, Becton Dickinson) and cells staining with propidium iodide were excluded from the analysis. The data presented is the mean fluorescent signal for the 5000 cells collected.
Inhibition of Cellular Uptake with Sodium Azide. The assays were performed as previously described with the exception that the cells used were preincubated for 30 min with 0.5% sodium azide in 2% FCS/PBS buffer prior to the addition of fluorescent peptides and the cells were washed with 0.5% sodium azide in PBS buffer. All of the cellular uptake assays were run in parallel in the presence and absence of sodium azide.
To determine the structural requirements for the cellular uptake of short arginine-rich peptides, a series of fluorescently-labeled truncated analogues of Tat49-57 were synthesized using standard solid-phase chemistry. See, e.g., Atherton, E.et al. SOLID-PHASE PEPTIDE […] (IRL: Oxford, Engl. 1989). A fluorescein moiety was attached via an aminohexanoic acid spacer on the amino termini. The ability of these fluorescently labeled peptides to enter Jurkat cells was then analyzed using fluorescent activated cell sorting (FACS) ( ). The peptide constructs tested were Tat49-57 (Fl-ahx-[…]): Tat49-56 (Fl-ahx-[…]), Tat49-55 (Fl-ahx-RKKRRQR), Tat50-57 (Fl-ahx-[…]), and […] (Fl-ahx-KRRQRRR). Differentiation between cell surface binding and internalization was accomplished throughout by running a parallel set of assays in the presence and absence of sodium azide. Because sodium azide inhibits energy-dependent cellular uptake but not cell surface binding, the difference in fluorescence between the two assays provided the amount of fluorescence resulting from internalization.

[2] = test system: Jurkat cells; assay: Cellular uptake kinetics assay (Michaelis-Menton); format: cell-based, human; conditions: for Vmax: Jurkat cells, 30, 60, 120, 240 seconds; for rate of cell entry, fold faster than Tat47-59: from Km values; for Km values, fold greater than that found for Tat49-57: discussion
Protocol: Cellular Uptake Kinetics Assay. […] The reactions were quenched by diluting the samples into 2% FCS/PBS (5 mL). The assays were then worked up and analyzed by fluorescent flow cytometry as previously described.

[3] = test system: skin of nude mice; assay: Penetration of taxol-biotinylated D-arginine conjugates into skin of nude mice; format: in vivo; conditions: back of nude mice, 1 mM-100 μM in PBS, 30, 60, 120 minutes
Protocol: Slides were analyzed by fluorescent microscopy.

With `N=C(N)NCCC[C@H](NC(=O)[C@H](CCCNC(=N)N)NC(=O)[C@H](CCCNC(=N)N)NC(=O)[C@H](CCC(N)=O)NC(=O)[C@H](CCCNC(=N)N)NC(=O)[C@H](CCCNC(=N)N)NC(=O)[C@H](CCCCN)NC(=O)[C@H](CCCCN)NC(=O)CCCCCNC(=S)Nc1ccc2c(c1)C(=O)OC21c2ccc(O)cc2Oc2cc(O)ccc21)C(N)=O` [Tat50-57] ({FITC-Ahx}-KKRRQRRR-NH2) the “loss of intracellular fluorescence compared to the parent sequence (Tat49-57)” value [1] was 80%.
`CC[C@H](C)[C@H](NC(=O)[C@H](CCCCN)NC(=O)[C@@H](NC(=O)[C@H](CCC(N)=O)NC(=O)[C@H](CCCNC(=N)N)NC(=O)CCCCCNC(=S)Nc1ccc2c(c1)C(=O)OC21c2ccc(O)cc2Oc2cc(O)ccc21)[C@@H](C)CC)C(=O)N[C@@H](Cc1c[nH]c2ccccc12)C(=O)N[C@@H](Cc1ccccc1)C(=O)N[C@@H](CCC(N)=O)C(=O)N[C@@H](CC(N)=O)C(=O)N[C@@H](CCCNC(=N)N)C(=O)N[C@@H](CCCNC(=N)N)C(=O)N[C@@H](CCSC)C(=O)N[C@@H](CCCCN)C(=O)N[C@@H](Cc1c[nH]c2ccccc12)C(=O)N[C@@H](CCCCN)C(=O)N[C@@H](CCCCN)C(N)=O` [Antennapedia43-58, reference compound] was tested, and the Vmax [2] was 0.41 and the “rate of cell entry, fold faster than Tat47-59” value [2] was “approximately 2 fold”.
`CC(=O)O[C@H]1C(=O)[C@@]2(C)[C@H]([C@H](OC(=O)c3ccccc3)[C@]3(O)C[C@H](OC(=O)[C@H](OC(=O)NCCCC[C@H](NC(=O)[C@@H](CCCNC(=N)N)NC(=O)[C@@H](CCCNC(=N)N)NC(=O)[C@@H](CCCNC(=N)N)NC(=O)[C@@H](CCCNC(=N)N)NC(=O)[C@@H](CCCNC(=N)N)NC(=O)[C@@H](CCCNC(=N)N)NC(=O)[C@@H](CCCNC(=N)N)NC(=O)CCCCCNC(=O)CCCC[C@@H]4SC[C@@H]5NC(=O)N[C@@H]54)C(N)=O)[C@@H](NC(=O)c4ccccc4)c4ccccc4)C(C)=C1C3(C)C)[C@]1(OC(C)=O)CO[C@@H]1C[C@@H]2O` [B-aca-r7-K-taxol] was tested, and the “penetration into skin (fluorescent streptavidin staining)” value (“penetration into skin” below) [3] was “effectively entered into and across the epidermis and into the dermis”.
For `C[C@H](NC(=O)[C@H](CCCNC(=N)N)NC(=O)[C@H](CCCNC(=N)N)NC(=O)[C@H](CCCCN)NC(=O)[C@H](CCCCN)NC(=O)[C@H](CCCNC(=N)N)NC(=O)CCCCCNC(=S)Nc1ccc2c(c1)C(=O)OC21c2ccc(O)cc2Oc2cc(O)ccc21)C(=O)N[C@@H](CCCNC(=N)N)C(=O)N[C@@H](CCCNC(=N)N)C(=O)N[C@@H](CCCNC(=N)N)C(N)=O` [A-54] ({FITC-Ahx}-RKKRRARRR-NH2), the “loss of cellular uptake on alanine substitution of Tat49-57” value ([1]; 12 min at 23° C.) was “modest decrease”.
With `CC(=O)O[C@H]1C(=O)[C@@]2(C)[C@H]([C@H](OC(=O)c3ccccc3)[C@]3(O)C[C@H](OC(=O)[C@H](OC(=O)NCCCC[C@H](NC(=O)[C@@H](CCCNC(=N)N)NC(=O)[C@@H](CCCNC(=N)N)NC(=O)[C@@H](CCCNC(=N)N)NC(=O)[C@@H](CCCNC(=N)N)NC(=O)[C@@H](CCCNC(=N)N)NC(=O)[C@@H](CCCNC(=N)N)NC(=O)[C@@H](CCCNC(=N)N)NC(=O)[C@@H](CCCNC(=N)N)NC(=O)[C@@H](CCCNC(=N)N)NC(=O)CCCCCNC(=O)CCCC[C@@H]4SC[C@@H]5NC(=O)N[C@@H]54)C(N)=O)[C@@H](NC(=O)c4ccccc4)c4ccccc4)C(C)=C1C3(C)C)[C@]1(OC(C)=O)CO[C@@H]1C[C@@H]2O` [B-aca-r9-K-taxol] the “penetration into skin” value [3] was “effectively entered into and across the epidermis and into the dermis”.
For `N=C(N)NCCC[C@@H](NC(=O)[C@@H](CCCNC(=N)N)NC(=O)[C@@H](CCCNC(=N)N)NC(=O)[C@@H](CCC(N)=O)NC(=O)[C@@H](CCCNC(=N)N)NC(=O)[C@@H](CCCNC(=N)N)NC(=O)[C@@H](CCCCN)NC(=O)[C@@H](CCCCN)NC(=O)[C@@H](CCCNC(=N)N)NC(=O)CCCCCNC(=S)Nc1ccc2c(c1)C(=O)OC21c2ccc(O)cc2Oc2cc(O)ccc21)C(N)=O` [d-Tat49-57, Fl-ahx-rkkrrqrrr], the “cellular uptake compared with Tat49-57” value [1] was “more effective at entering Jurkat cells then Tat49-57”.
In the case of `N=C(N)NCCC[C@H](NC(=O)[C@H](CCCCN)NC(=O)[C@H](CCCCN)NC(=O)[C@H](CCCNC(=N)N)NC(=O)[C@H](CCCNC(=N)N)NC(=O)[C@H](CCC(N)=O)NC(=O)[C@H](CCCNC(=N)N)NC(=O)[C@H](CCCNC(=N)N)NC(=O)[C@H](CCCNC(=N)N)NC(=O)CCCCCNC(=S)Nc1ccc2c(c1)C(=O)OC21c2ccc(O)cc2Oc2cc(O)ccc21)C(N)=O` [Tat57-49], the “cellular uptake compared with Tat49-57” value [1] is reported as “more effective at entering Jurkat cells then Tat49-57”.
In the case of `CC(=O)O[C@H]1C(=O)[C@@]2(C)[C@H]([C@H](OC(=O)c3ccccc3)[C@]3(O)C[C@H](OC(=O)[C@H](OC(=O)NCCCC[C@H](NC(=O)[C@@H](CCCNC(=N)N)NC(=O)[C@@H](CCCNC(=N)N)NC(=O)[C@@H](CCCNC(=N)N)NC(=O)[C@@H](CCCNC(=N)N)NC(=O)[C@@H](CCCNC(=N)N)NC(=O)CCCCCNC(=O)CCCC[C@@H]4SC[C@@H]5NC(=O)N[C@@H]54)C(N)=O)[C@@H](NC(=O)c4ccccc4)c4ccccc4)C(C)=C1C3(C)C)[C@]1(OC(C)=O)CO[C@@H]1C[C@@H]2O` [B-aca-r5-K-taxol], the “penetration into skin” value [3] is reported as “very little uptake”.
In the case of `N=C(N)NCCC[C@H](NC(=O)[C@H](CCC(N)=O)NC(=O)[C@H](CCCNC(=N)N)NC(=O)[C@H](CCCNC(=N)N)NC(=O)[C@H](CCCCN)NC(=O)[C@H](CCCCN)NC(=O)[C@H](CCCNC(=N)N)NC(=O)CCCCCNC(=S)Nc1ccc2c(c1)C(=O)OC21c2ccc(O)cc2Oc2cc(O)ccc21)C(N)=O` [Tat49-55, Fl-ahx-RKKRRQR] ({FITC-Ahx}-RKKRRQR-NH2), the “additional loss of intracellular fluorescence from the one amino acid truncated analogs” value [1] is reported as 60%.
In the case of `N=C(N)NCCC[C@H](NC(=O)[C@H](CCCNC(=N)N)NC(=O)[C@H](CCCNC(=N)N)NC(=O)[C@H](CCC(N)=O)NC(=O)[C@H](CCCNC(=N)N)NC(=O)[C@H](CCCNC(=N)N)NC(=O)[C@H](CCCCN)NC(=O)[C@H](CCCCN)NC(=O)[C@H](CCCNC(=N)N)NC(=O)CCCCCNC(=S)Nc1ccc2c(c1)C(=O)OC21c2ccc(O)cc2Oc2cc(O)ccc21)C(N)=O` [Tat49-57, reference compound], the “cellular uptake compared with Tat49-57” value [1] is reported as “between that of R6 and R7” and the Vmax [2] is reported as 0.38.
In the case of `N=C(N)NCCC[C@@H](NC(=O)[C@@H](CCCCN)NC(=O)[C@@H](CCCCN)NC(=O)[C@@H](CCCNC(=N)N)NC(=O)[C@@H](CCCNC(=N)N)NC(=O)[C@@H](CCC(N)=O)NC(=O)[C@@H](CCCNC(=N)N)NC(=O)[C@@H](CCCNC(=N)N)NC(=O)[C@@H](CCCNC(=N)N)NC(=O)CCCCCNC(=S)Nc1ccc2c(c1)C(=O)OC21c2ccc(O)cc2Oc2cc(O)ccc21)C(N)=O` [d-Tat57-49, Fl-ahx-rrrqrrkkr], the “cellular uptake compared with Tat49-57” value [1] is reported as “more effective at entering Jurkat cells then Tat49-57”.
In the case of `N=C(N)NCCC[C@@H](NC(=O)[C@@H](CCCNC(=N)N)NC(=O)[C@@H](CCCNC(=N)N)NC(=O)[C@@H](CCCNC(=N)N)NC(=O)[C@@H](CCCNC(=N)N)NC(=O)[C@@H](CCCNC(=N)N)NC(=O)[C@@H](CCCNC(=N)N)NC(=O)[C@@H](CCCNC(=N)N)NC(=O)[C@@H](CCCNC(=N)N)NC(=O)CCCCCNC(=S)Nc1ccc2c(c1)C(=O)OC21c2ccc(O)cc2Oc2cc(O)ccc21)C(N)=O` (single isomer, unassigned) [R9], the “cellular uptake of peptoids compared with d-arginine oligomers / other peptoids” value ([1]; 4 min at 23° C.) is reported as “comparable to N-btg9”, the “relative order of uptake” value ([1]; 4 min at 23° C.) is reported as “N-hxg9 (6 methylene)>N-btg9 (4 methylene)>r9 (3 methylene)>N-arg9 (3 methylene)>N-etg9 (2 methylene)” and the Vmax [2] is reported as 0.38. The “Km values, fold greater than that found for Tat49-57” value [2] was 30 fold, the “Km values, fold greater than that found for Tat49-57” value ([2]; listed as r9) was 100 fold and the “rate of cell entry, fold faster than Tat47-59” value [2] was ~20 fold.
With `N=C(N)NCCC[C@H](NC(=O)[C@H](CCCNC(=N)N)NC(=O)[C@H](CCCNC(=N)N)NC(=O)[C@H](CCC(N)=O)NC(=O)[C@H](CCCNC(=N)N)NC(=O)[C@H](CCCNC(=N)N)NC(=O)[C@H](CCCCN)NC(=O)CCCCCNC(=S)Nc1ccc2c(c1)C(=O)OC21c2ccc(O)cc2Oc2cc(O)ccc21)C(N)=O` [Tat51-57, Fl-ahx-KRRQRRR] ({FITC-Ahx}-KRRQRRR-NH2) the “additional loss of intracellular fluorescence from the one amino acid truncated analogs” value [1] was “did not further diminish the amount of internalization”.
With `N=C(N)NCCC[C@H](NC(=O)[C@H](CCCNC(=N)N)NC(=O)[C@H](CCC(N)=O)NC(=O)[C@H](CCCNC(=N)N)NC(=O)[C@H](CCCNC(=N)N)NC(=O)[C@H](CCCCN)NC(=O)[C@H](CCCCN)NC(=O)[C@H](CCCNC(=N)N)NC(=O)CCCCCNC(=S)Nc1ccc2c(c1)C(=O)OC21c2ccc(O)cc2Oc2cc(O)ccc21)C(N)=O` [Tat49-56] ({FITC-Ahx}-RKKRRQRR-NH2) the “loss of intracellular fluorescence compared to the parent sequence (Tat49-57)” value [1] was 80%.
